# Results published in BindingDB's records for patent US20240262826 (Blueprint Medicines, 2024).
# Molecular target: Mast/stem cell growth factor receptor Kit (Homo sapiens, UniProt P10721)
# Test: Biochemical Phospho c-Kit Inhibition Assay
# Description: For the PathScan phospho c-kit (Tyr719) sandwich ELISA: M-07e cells were resuspended at 2×10^6 cells/mL in phenol red free, serum-free, GM-CSF-free Iscove's Modified Dulbecco's Medium (IMDM) media with 1% Penicillin-Streptomycin. The cells were then dispensed into the wells of a U-bottom, 96-well plate at 50 uL per well using a multichannel pipet. The plate was allowed to incubate at 37° C. in a humidified tissue culture incubator for 4 hours.After 4 hours of incubation, each well was dosed with 6.25 uL of test compound at a final DMSO concentration of 0.25% for 60 min at 37° C. to generate an 8-point dose concentration series of test compounds in duplicate. Cells were then incubated for 1 hour at 37° C. in a humidified tissue culture incubator. Next, human SCF at 500 ng/mL was added to the appropriate wells at 6.25 uL/well and the plate was shaken at 450 rpm at room temperature for 10 minutes. AlphaLISA 5× Lysis Buffer supplemented with 1× protease and phosphatase inhibitor was then added at 16 uL/well. The plate was sealed with an adherent cover and shaken at 4° C. at 600 rpm for 30 minutes. After this period of lysis, the plate was stored at −80° C. When the 96-well plate containing M07e lysates was ready to be processed, the plate was brought to room temperature and 40 μl from each well was transferred to the wells of a PathScan Phospho-c-Kit (Tyr719) Sandwich ELISA plate (CST, Catalog #7298). The ELISA plate was sealed with an adherent cover and incubated for 2 hours at 37° C. Next, the wells were washed 4 times with the provided 1× Wash Buffer, and 100 uL/well of reconstituted Detection Antibody was added to each well, the plate sealed with an adherent cover, and incubated at 37° C. for 1 hour. The wash procedure was repeated and 100 uL/well of reconstituted HRP-Linked secondary antibody was added. The plate was sealed with an adherent cover and incubated at 37° C. for 1 hour. The wash procedure was repeated and 100 uL/well of TMB Substrate was added. The plate was incubated for 10 minutes at room temperature or until the positive reaction elicited a blue color in the appropriate wells. 100 uL/well of STOP solution was added and shaken gently for a few seconds a microplate reader or conventional spectrophotometer e.g., a Perkin Elmer Envision multimode plate reader, part #2105-0010.
# Mast/stem cell growth factor receptor Kit, sequence (P10721 whole entry): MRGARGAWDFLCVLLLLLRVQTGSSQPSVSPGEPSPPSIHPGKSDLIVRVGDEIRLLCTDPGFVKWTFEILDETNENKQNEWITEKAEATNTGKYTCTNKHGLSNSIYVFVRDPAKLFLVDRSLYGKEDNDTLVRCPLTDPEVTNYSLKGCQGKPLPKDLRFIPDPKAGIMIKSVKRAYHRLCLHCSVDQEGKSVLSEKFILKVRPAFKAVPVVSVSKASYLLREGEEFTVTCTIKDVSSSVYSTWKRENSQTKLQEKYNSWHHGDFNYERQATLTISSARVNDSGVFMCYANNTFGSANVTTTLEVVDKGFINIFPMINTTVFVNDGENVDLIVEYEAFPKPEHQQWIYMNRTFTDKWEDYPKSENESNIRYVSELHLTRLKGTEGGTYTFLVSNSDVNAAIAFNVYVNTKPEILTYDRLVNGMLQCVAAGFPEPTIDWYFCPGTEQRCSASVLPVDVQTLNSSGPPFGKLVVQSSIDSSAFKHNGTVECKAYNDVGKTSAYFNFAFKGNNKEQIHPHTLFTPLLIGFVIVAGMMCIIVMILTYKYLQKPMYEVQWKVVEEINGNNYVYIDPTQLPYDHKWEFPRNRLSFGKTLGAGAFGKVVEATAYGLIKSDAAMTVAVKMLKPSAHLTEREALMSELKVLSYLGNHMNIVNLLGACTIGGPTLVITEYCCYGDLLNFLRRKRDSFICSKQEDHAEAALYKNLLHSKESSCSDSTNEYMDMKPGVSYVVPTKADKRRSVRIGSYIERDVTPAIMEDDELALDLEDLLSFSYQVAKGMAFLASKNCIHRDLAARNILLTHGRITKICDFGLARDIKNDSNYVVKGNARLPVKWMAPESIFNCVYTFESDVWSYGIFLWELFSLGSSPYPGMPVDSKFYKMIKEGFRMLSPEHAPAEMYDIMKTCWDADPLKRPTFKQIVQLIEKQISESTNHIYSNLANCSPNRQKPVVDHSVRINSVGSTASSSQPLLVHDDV
row,Structure (SMILES),IC50 [nM]
1,"Cc1cnn(-c2ccc(C)c(NC(=O)c3cnn4ccc(-c5cnn(C[C@H]6CNCCO6)c5)cc34)c2)n1 [US20240262826, Compound 205]",8.2
2,"Cc1ccc(-c2nnn(C3CC(F)(F)C3)n2)cc1NC(=O)c1cnn2ccc(N3CC[C@H]3CO)cc12 [US20240262826, Compound 104]",3.5
3,"O=C(Nc1cc(-c2nnn(C3CC(F)(F)C3)n2)c(Cl)cc1Cl)c1cnn2ccc(N3CCOCC3)cc12 [US20240262826, Compound 167]",7.3

# The next molecules have a lower IC50 than those just listed; values first:
row,IC50 [nM],Structure (SMILES)
1,1.7,"COCCOC[C@@H](O)Cn1cc(-c2ccn3ncc(C(=O)Nc4cc(-c5nnn(C6CC6)n5)c(C)cc4Cl)c3c2)cn1 [US20240262826, Compound 261]"
2,1.4,"Cc1ccc(-c2nnn(CCOCC(F)(F)F)n2)cc1NC(=O)c1cnn2ccc(-c3cn[nH]c3)cc12 [US20240262826, Compound 197]"
